Reference: the supplement of paper PMC10307832

Legend:
Experiment in all cases: relative viability (nuclei count vs DMSO), 5 days (fraction); higher = more cells survive
201T = test system: 201T
Outline: (§1)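 For relative viability, nuclei counts in treated wells were divided by those in vehicle wells. Lung cancer cell lines had been pin-tool dosed in 1536-well plates the day after seeding and cultured for 5 days, then fixed and stained in one step (final 0.05% Triton X-100, 1% formaldehyde, 1 ug/ml Hoechst) and imaged at 4×. Doses were one drug alone or a fixed anchor-drug dose plus five library-drug doses (not always all listed) in √10 steps, and values are duplicate-plate medians.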

A-427 = test system: A-427
Outline: as §1

BEN = test system: BEN
Outline: as §1

CAL-12T = test system: CAL-12T
Outline: as §1

H3255 = test system: H3255
Outline: as §1

LC-2-ad = test system: LC-2-ad
Outline: as §1

LCLC-97TM1 = test system: LCLC-97TM1
Outline: as §1

NCI-H1650 = test system: NCI-H1650
Outline: as §1

NCI-H1651 = test system: NCI-H1651
Outline: as §1

NCI-H1915 = test system: NCI-H1915
Outline: as §1

NCI-H1944 = test system: NCI-H1944
Outline: as §1

NCI-H2023 = test system: NCI-H2023
Outline: as §1

NCI-H2087 = test system: NCI-H2087
Outline: as §1

NCI-H441 = test system: NCI-H441
Outline: as §1

NCI-H460 = test system: NCI-H460
Outline: as §1

NCI-H520 = test system: NCI-H520
Outline: as §1

NCI-H596 = test system: NCI-H596
Outline: as §1

NCI-H650 = test system: NCI-H650
Outline: as §1

NCI-H661 = test system: NCI-H661
Outline: as §1

NCI-H727 = test system: NCI-H727
Outline: as §1

PC-3 [JPC-3] = test system: PC-3 [JPC-3]
Outline: as §1

SMILES: COc1nc(C)cnc1NS(=O)(=O)c1cccnc1-c1ccc(-c2nnco2)cc1 [Zibotentan] + CC(=O)Nc1cccc(-n2c(=O)n(C3CC3)c(=O)c3c(Nc4ccc(I)cc4F)n(C)c(=O)c(C)c32)c1 [Trametinib] (partner 0.02 µM)
- relative viability (201T; first compound 0.08 µM): 0.714
- relative viability (201T; first compound 0.253 µM): 0.714
- relative viability (201T; first compound 0.8 µM): 0.734
- relative viability (201T; first compound 2.53 µM): 0.746
- relative viability (A-427; first compound 0.08 µM): 0.813
- relative viability (A-427; first compound 0.253 µM): 0.72
- relative viability (A-427; first compound 0.8 µM): 0.845
- relative viability (A-427; first compound 2.53 µM): 0.83
- relative viability (BEN; first compound 0.08 µM): 1.04
- relative viability (BEN; first compound 0.253 µM): 0.926
- relative viability (BEN; first compound 0.8 µM): 0.832
- relative viability (BEN; first compound 2.53 µM): 0.979
- relative viability (CAL-12T; first compound 0.08 µM): 0.34
- relative viability (CAL-12T; first compound 0.253 µM): 0.303
- relative viability (CAL-12T; first compound 0.8 µM): 0.349
- relative viability (CAL-12T; first compound 2.53 µM): 0.337
- relative viability (H3255; first compound 0.08 µM): 0.659
- relative viability (H3255; first compound 0.253 µM): 0.607
- relative viability (H3255; first compound 0.8 µM): 0.667
- relative viability (H3255; first compound 2.53 µM): 0.626
- relative viability (LC-2-ad; first compound 0.08 µM): 0.928
- relative viability (LC-2-ad; first compound 0.253 µM): 0.858
- relative viability (LC-2-ad; first compound 0.8 µM): 0.913
- relative viability (LC-2-ad; first compound 2.53 µM): 0.935
- relative viability (LCLC-97TM1; first compound 0.08 µM): 0.217
- relative viability (LCLC-97TM1; first compound 0.253 µM): 0.213
- relative viability (LCLC-97TM1; first compound 0.8 µM): 0.198
- relative viability (LCLC-97TM1; first compound 2.53 µM): 0.2
- relative viability (NCI-H1650; first compound 0.08 µM): 0.533
- relative viability (NCI-H1650; first compound 0.8 µM): 0.563
- relative viability (NCI-H1650; first compound 2.53 µM): 0.557
- relative viability (NCI-H1651; first compound 0.08 µM): 0.907
- relative viability (NCI-H1651; first compound 0.253 µM): 0.794
- relative viability (NCI-H1651; first compound 0.8 µM): 0.832
- relative viability (NCI-H1651; first compound 2.53 µM): 0.803
- relative viability (NCI-H1915; first compound 0.08 µM): 0.325
- relative viability (NCI-H1915; first compound 0.253 µM): 0.313
- relative viability (NCI-H1915; first compound 0.8 µM): 0.347
- relative viability (NCI-H1915; first compound 2.53 µM): 0.296
- relative viability (NCI-H1944; first compound 0.08 µM): 0.461
- relative viability (NCI-H1944; first compound 0.253 µM): 0.383
- relative viability (NCI-H1944; first compound 0.8 µM): 0.399
- relative viability (NCI-H1944; first compound 2.53 µM): 0.437
- relative viability (NCI-H2023; first compound 0.08 µM): 0.631
- relative viability (NCI-H2023; first compound 0.8 µM): 0.614
- relative viability (NCI-H2023; first compound 2.53 µM): 0.558
- relative viability (NCI-H2087; first compound 0.08 µM): 0.192
- relative viability (NCI-H2087; first compound 0.253 µM): 0.146
- relative viability (NCI-H2087; first compound 0.8 µM): 0.246
- relative viability (NCI-H2087; first compound 2.53 µM): 0.208
- relative viability (NCI-H441; first compound 0.08 µM): 0.454
- relative viability (NCI-H441; first compound 0.253 µM): 0.408
- relative viability (NCI-H441; first compound 0.8 µM): 0.544
- relative viability (NCI-H441; first compound 2.53 µM): 0.471
- relative viability (NCI-H460; first compound 0.08 µM): 0.159
- relative viability (NCI-H460; first compound 0.253 µM): 0.0304
- relative viability (NCI-H460; first compound 0.8 µM): 0.0981
- relative viability (NCI-H460; first compound 2.53 µM): 0.196
- relative viability (NCI-H520; first compound 0.08 µM): 0.803
- relative viability (NCI-H520; first compound 0.253 µM): 0.704
- relative viability (NCI-H520; first compound 0.8 µM): 0.631
- relative viability (NCI-H520; first compound 2.53 µM): 0.79
- relative viability (NCI-H596; first compound 0.08 µM): 0.801
- relative viability (NCI-H596; first compound 0.253 µM): 0.8
- relative viability (NCI-H596; first compound 0.8 µM): 0.791
- relative viability (NCI-H596; first compound 2.53 µM): 0.714
- relative viability (NCI-H650; first compound 0.08 µM): 1.06
- relative viability (NCI-H650; first compound 0.253 µM): 1.04
- relative viability (NCI-H650; first compound 0.8 µM): 0.967
- relative viability (NCI-H650; first compound 2.53 µM): 0.844
- relative viability (NCI-H661; first compound 0.08 µM): 0.574
- relative viability (NCI-H661; first compound 0.253 µM): 0.495
- relative viability (NCI-H661; first compound 0.8 µM): 0.589
- relative viability (NCI-H661; first compound 2.53 µM): 0.601
- relative viability (NCI-H727; first compound 0.08 µM): 0.371
- relative viability (NCI-H727; first compound 0.253 µM): 0.415
- relative viability (NCI-H727; first compound 0.8 µM): 0.441
- relative viability (NCI-H727; first compound 2.53 µM): 0.439
- relative viability (PC-3 [JPC-3]; first compound 0.08 µM): 0.628
- relative viability (PC-3 [JPC-3]; first compound 0.253 µM): 0.508
- relative viability (PC-3 [JPC-3]; first compound 0.8 µM): 0.723
- relative viability (PC-3 [JPC-3]; first compound 2.53 µM): 0.715
